The conditions of series [1]: PO 2 mg/Kg, FIG. 15, time points other than the one quantified.
A short description of series [2]: PK of psilocin after a single intravenous administration in rats. Conditions: IV 1 mg/kg nominal dose; for half-life: T½.
Where [3] appears, read: psilocin in plasma, individual animal.
The mark [4] stands for this setting: psilocin in plasma, individual animal, 1 mg/kg.

These results are taken from patent publication US20250011344A1 (priority 2021, published 2025).

Where “and” joins values, the source holds several entries; their conditions need not be identical. Equal values may be shown once. Where a name gives a salt, the structure may show the parent alone.

Turning to `CN(C)CCc1c[nH]c2cccc(OP(=O)(OC(C)(C)C)OC(C)(C)C)c12` [Di-tert-butyl [3-[2-(dimethylamino)ethyl]-1H-indol-4-yl] phosphate HCl salt], in series [1], the “Plasma concentrations of metabolite psilocin at other time points” value is “below limit of quantification (BLQ)”.
As to `CN(C)CCc1c[nH]c2cccc(O)c12` [Psilocin, psilocin], in series [2] (male, Sprague-Dawley, rat, plasma, iv, 1 mg/kg, AUCINF_obs, Mean of animals), the AUC(0-inf) was found to be 1580 ng·h/mL. The AUC(0-t) in series [2] (male, Sprague-Dawley, rat, plasma, iv, 1 mg/kg, AUClast, Mean of animals) turned out to be 1920 ng·h/mL. The same compound gave a Cmax in series [2] (male, Sprague-Dawley, rat, plasma, iv, 1 mg/kg, Cmax, Mean of animals) of 1300 ng/mL. Also, the half-life in series [2] (male, Sprague-Dawley, rat, plasma, iv, 1 mg/kg, Mean of animals) was 28.7 min. Further, in series [2] (male, Sprague-Dawley, rat, plasma, iv, 1 mg/kg, individual animal), the half-life is 24.8 min. Also, the Tlast in series [2] (psilocin in plasma, Mean of animals) was 24.00 h. Further, in series [2] (setting [3]), the Tlast amounted to 24.00 h and the Tmax amounted to 15 min. For the same compound, in series [2] (setting [4]), the AUCINF_obs was 982 ng·h/mL and 3390 ng·h/mL and 368 ng·h/mL; the AUClast is 1340 ng·h/mL and 3780 ng·h/mL and 646 ng·h/mL; the Cmax is 1110 ng/mL and 2450 ng/mL and 340 ng/mL; the T½ is 21.2 min and 40.1 min.
